What was measured:
Type in all cases: cell-based, Dickeya dadantii 3937 (Ech3937)
hrpA mRNA = assay: qRT-PCR relative mRNA level of hrpA
Description: (§1) Bacterial strains were grown in MM. Total RNA from the bacterial cells was isolated by using the TRI reagent method (Sigma, Mo.) and treated with Turbo DNA-free DNase kits (Ambion, TX) as described (Peng et al., 2006). An iScript cDNA Synthesis Kit (Bio-Rad, CA) was used to synthesize cDNA from 0.5 μg of treated total RNA. The Real Master Mix (Eppendorf, Westbury, N.Y.) was used for qRT-PCR reaction to quantify the cDNA level of target genes in different samples. The rplU was used as the endogenous control for data analysis. qRT-PCR data were analyzed using Relative Expression Software Tool as described (Pfaffl, M. W., Horgan, G. W., and Dempfle, L. (2002) Relative expression software tool (REST) for group-wise comparison and statistical analysis of relative expression results in real-time PCR. Nucleic Acids Res 30:e36.).

hrpS promoter = hrpS promoter activity, GFP reporter plasmid phrpS, flow cytometry (FACS)
Description: (§2) FACS analysis of promoter activity of dspE, hrpA, hrpL, hrpN, and hrpS was carried out as described (Peng et al., 2006). Briefly, the wild-type Ech3937 and the mutant strains carrying the promoter reporter plasmid were grown on LB broth at 28° C. overnight and transferred to appropriate media. For FACS analysis, samples were collected by centrifugation, washed with 1× phosphate buffer saline (PBS) at 13,000 rpm for 1 min, and re-suspended in 1×PBS to ca 10^6 CFU/ml prior to being run in a FACS Calibur flow cytometer (BD Biosciences, CA). Three replicates were performed for each treatment.
Since OCA and TCA induced the expression of hrpN, the effect of these two phenolic compounds on the expression of hrpA, hrpL, and hrpS was investigated further. […] GFP intensity was determined on gated populations of bacterial cells by flow cytometry and analyzed with the Cell Quest software (BD Biosciences, San Jose, Calif.). The lines labeled “1” stand for the GFP expression control base level of the Ech3937 containing pPROBE-AT vector; lines labeled “2” stand for the promoter activity of hrpS, hrpL, hrpA and hrpN in Ech3937 in MM; lines labeled “3” stand for the promoter activity of Ech3937 in MM supplemented with 0.1 mM OCA; lines labeled “4” stand for the promoter activity of hrpL mutant WPP96 in MM; lines labeled “5” stand for the promoter activity of hrpL mutant WPP96 in MM supplemented with 0.1 mM OCA. Values are representative of at least two experiments. […] Compared with MM alone, the average GFP fluorescence intensity of bacterial cells of Ech3937 (phrpA) was doubled when 0.1 mM of OCA and TCA were added to the medium (Table 4; FIG. 3). […] The mrp, whose protein product has an ATPase conserved domain (2e-06), was used as a reference gene in this study.

Ech3937 = assay: Growth of Ech3937 in MM supplemented with compound
From the text: Phenolic compounds constitute an important class of organic substances produced by plants. The phenolic compound SA is a signaling molecule that plays a role in host defenses. OCA and TCA are the biosynthetic precursors of SA and are also reported to induce the expression of defense-related genes in plants. OCA, TCA, and SA were examined to elucidate their effects on the expression of T3SS genes. The expression of the T3SS gene hrpN was examined in MM and MM supplemented with OCA, TCA, and SA, at concentrations of 0.05, 0.1, and 0.2 mM, respectively. FIGS. 2A and 2B show the promoter activities of hrpN in Dickeya dadantii 3937 (Ech3937) grown in MM and MM supplemented with 0.05, 0.1, and 0.2 mM OCA, TCA, and SA at 12 h (FIG. 2A) and 24 h (FIG. 2B) post-inoculation. GFP intensity was determined on gated populations of bacterial cells by flow cytometry and analyzed with the Cell Quest software (BD Biosciences, San Jose, Calif.). The growth of Ech3937 in MM supplemented with different concentrations of OCA, TCA and SA was recorded. Compared with MM alone, the average GFP fluorescence intensity of bacterial cells of Ech3937 (phrpN) was increased approximately 4-fold when 0.05 mM of OCA and TCA were added to the medium (FIGS. 2A, 2B).
The expression of the T3SS gene hrpA was further examined in MM and MM supplemented with PCA at concentrations of 0.001, 0.005, 0.01, 0.05 and 0.1 mM respectively. FIGS. 16A and 16B show the promoter activities of hrpA in Dickeya dadantii 3937 (Ech3937) grown in minimum medium (MM) and MM supplemented with different amount of p-coumaric acid (PCA) at 12 h (FIG. 16A) and 24 h (FIG. 16B) post-inoculation. GFP intensity was determined on gated populations of bacterial cells by flow cytometry and analyzed with the Cell Quest software (BD Biosciences, San Jose, Calif.). The growth of Ech3937 in MM supplemented with different concentrations of PCA was recorded. Compared with MM alone, the average GFP fluorescence intensity of bacterial cells of Ech3937 (phrpA) was reduced more than 4-fold when 0.05 and 0.1 mM of PCA were added to the medium (FIGS. 16A, 16B).

rsmB mRNA = assay: qRT-PCR relative mRNA level of rsmB
Description: as §1

hrpA promoter = hrpA promoter activity, GFP reporter plasmid phrpA, flow cytometry (FACS); conditions: for GFP intensity (Mean Fluorescence Intensity) of Ech-Rif (phrpA) / GFP intensity (Mean Fluorescence Intensity) of Ech137 (phrpA): MM + 0.1 mM OCA; for GFP intensity (Mean Fluorescence Intensity) of Ech137 (phrpA): gacA mutant Ech137; for GFP intensity (Mean Fluorescence Intensity) of WPP96 (phrpA): hrpL mutant WPP96; for GFP intensity (Mean Fluorescence Intensity) of WPP90 (phrpA): hrpS mutant WPP90; for GFP intensity (Mean Fluorescence Intensity) of WPP67 (phrpA): hrpX mutant WPP67; for GFP intensity (Mean Fluorescence Intensity) of WPP92 (phrpA): hrpY mutant WPP92
Description: as §2
To identify potential compounds that repress activation of T3SS, analogs and isomers of TCA and intermediates of salicylic acid and phenypropanoid biosynthesis pathways in plants were further screened for their effect on Ech3937 hrpA expression by flow cytometry (Table 9). A green fluorescent protein (GFP) reporter plasmid phrpA (pProbe-AT derivative with PCR fragment containing hrpA promoter region) was constructed, resulting in a transcriptional fusion of hrpA promoter with GFP gene. Bacterial cells containing phrpA plasmid were grown in MM supplemented with 0.1 mM of each compound. GFP intensity, which is a measurement of hrpA promoter activity, was measured by flow cytometry.

[1] = MM + 0.1 mM compound, 12 h (Table 4)
[2] = MM + 0.1 mM compound, 6 h (Table 9)
[3] = MM + 0.1 mM compound, 12 h (Table 9)
[4] = MM + 0.1 mM compound, 24 h (Table 9)
[5] = MM + 0.1 mM PCA (MMPCA), 12 h (Table 10)
[6] = MM + 0.1 mM PCA (MMPCA), 24 h (Table 10)

For `O=C(O)/C=C/c1ccccc1O` [OCA, o-coumaric acid], the “hrpA mRNA compared with MM alone (qRT-PCR)” value (hrpA mRNA; MM supplemented with 0.1 mM OCA (FIG. 4)) was “significantly higher amount”, the “GFP intensity of Ech3937 (phrpS) compared with MM alone” value (hrpS promoter; MM + 0.1 mM compound, 12 h) was “slightly lower GFP intensity” and the “GFP intensity (Mean Fluorescence Intensity) of Ech3937 (phrpS)” value (hrpS promoter; [1]) was 56 ± 1. For the same molecule, the “GFP intensity (Mean Fluorescence Intensity) of WPP96 (phrpS)” value (hrpS promoter; hrpL mutant WPP96, MM + 0.1 mM compound, 12 h (Table 4)) was 350 ± 17, the “bacterial growth of Ech3937 in supplemented MM” value (Ech3937; 0.05, 0.1 and 0.2 mM in MM (FIGS. 2A, 2B)) was “No reduction of bacterial growth” and the “rsmB mRNA relative expression ratio” value (rsmB mRNA; Ech3937 in supplemented MM vs MM alone (normalized to 1)) was 1.4. The “average GFP fluorescence intensity of Ech3937 (phrpA) compared with MM alone” value (hrpA promoter; 0.1 mM compound, 12 h) was “doubled”, the “GFP intensity (Mean Fluorescence Intensity) of Ech-Rif (phrpA)” value (“GFP intensity … of Ech-Rif (phrpA)” for short) (hrpA promoter; 6 h) was 18 ± 0 and the “GFP intensity … of Ech-Rif (phrpA)” value (hrpA promoter; 12 h) was 51 ± 2. The “GFP intensity … of Ech-Rif (phrpA)” value (hrpA promoter; 24 h) was 49 ± 1, the “expression of hrpA, GFP intensity (Mean Fluorescence Intensity), Ech3937 carrying phrpA” value (shortened to “expression of hrpA, GFP intensity”) (hrpA promoter; [2]) was 15.5 ± 1.1 and the “GFP intensity (Mean Fluorescence Intensity) of Ech3937 (phrpA)” value (from here on “GFP intensity … of Ech3937 (phrpA)”) (hrpA promoter; [1]) was 82 ± 1. The “expression of hrpA, GFP intensity” value (hrpA promoter; [3]) was 115.5 ± 7.9, the “expression of hrpA, GFP intensity” value (hrpA promoter; [4]) was 225.8 ± 15.6 and the “GFP intensity (Mean Fluorescence Intensity) of Ech137 (phrpA)” value (“GFP intensity … of Ech137 (phrpA)” for short) (hrpA promoter; 6 h) was 4.9 ± 0.1. The “GFP intensity … of Ech137 (phrpA)” value (hrpA promoter; 12 h) was 5.9 ± 0.1, the “GFP intensity … of Ech137 (phrpA)” value (hrpA promoter; 24 h) was 8.3 ± 0 and the “GFP intensity (Mean Fluorescence Intensity) of WPP96 (phrpA)” value (from here on “GFP intensity … of WPP96 (phrpA)”) (hrpA promoter; [1]) was 6.5 ± 0.2.
In the case of `O=C(O)/C=C/c1ccc(O)cc1` [PCA, p-coumaric acid], the “hrpA mRNA compared with MM alone (normalized to 1), qRT-PCR” value (hrpA mRNA; 0.1 mM PCA, P=0.001 (FIG. 14)) is reported as “significantly lower amount of mRNA”, the “GFP intensity (Mean Fluorescence Intensity) of Ech3937 (phrpS)” value (hrpS promoter; [5]) is reported as 37.9 ± 1.3 and the “GFP intensity (Mean Fluorescence Intensity) of Ech3937 (phrpS)” value (hrpS promoter; [6]) is reported as 43.6 ± 2.6. For the same molecule, the “bacterial growth of Ech3937 in MM with PCA” value (Ech3937; PCA 0.001 to 0.1 mM in MM (FIGS. 16A, 16B)) was “Inhibition of bacterial growth was not observed”, the “rsmB gene expression, MM vs supplemented MM (qRT-PCR)” value (rsmB mRNA; MM supplemented with PCA, p=0.928 (FIG. 14)) was “No significant difference” and the “reduction of average GFP fluorescence intensity of Ech3937 (phrpA) compared with MM alone” value (hrpA promoter; 0.05 and 0.1 mM of PCA, 12 h and 24 h (FIGS. 16A, 16B)) was “more than 4 fold”. For the same molecule, the “GFP intensity … of Ech3937 (phrpA)” value (hrpA promoter; [5]) was 10.3 ± 1.3, the “GFP intensity … of Ech3937 (phrpA)” value (hrpA promoter; MM + 0.1 mM PCA (MMPCA), 12 h (Table 11)) was 9.2 ± 0.4 and the “GFP intensity … of Ech3937 (phrpA)” value (hrpA promoter; [6]) was 18.5 ± 3.5. The “GFP intensity … of Ech3937 (phrpA)” value (hrpA promoter; MM + 0.1 mM PCA (MMPCA), 24 h (Table 11)) was 12.7 ± 0.3, the “effect on expression of hrpA (screen result)” value (hrpA promoter; MM + 0.1 mM compound (Table 9)) was “inhibitors of the expression of hrpA” and the “expression of hrpA, GFP intensity” value (hrpA promoter; [2]) was 6.9 ± 0.1. For the same molecule, the “expression of hrpA, GFP intensity” value (hrpA promoter; [3]) was 10.2 ± 0.4, the “expression of hrpA, GFP intensity” value (hrpA promoter; [4]) was 11.4 ± 1.0 and the “reduction of GFP fluorescence intensity of Ech3937 (phrpA)” value (hrpA promoter; PCA at 0.001, 0.005 and 0.01 (FIGS. 16A, 16B)) was “did not result in substantial reduction”. The “GFP intensity … of WPP96 (phrpA)” value (hrpA promoter; MM + 0.1 mM PCA, 12 h) was 7.3 ± 0.1, the “GFP intensity … of WPP96 (phrpA)” value (hrpA promoter; MM + 0.1 mM PCA, 24 h) was 9.0 ± 1.6 and the “GFP intensity (Mean Fluorescence Intensity) of WPP90 (phrpA)” value (hrpA promoter; MM + 0.1 mM PCA, 12 h) was 7.9 ± 0.2. The “GFP intensity (Mean Fluorescence Intensity) of WPP90 (phrpA)” value (hrpA promoter; MM + 0.1 mM PCA, 24 h) was 9.3 ± 0.2, the “GFP intensity (Mean Fluorescence Intensity) of WPP67 (phrpA)” value (hrpA promoter; MM + 0.1 mM PCA, 12 h) was 7.9 ± 0.2 and the “GFP intensity (Mean Fluorescence Intensity) of WPP67 (phrpA)” value (hrpA promoter; MM + 0.1 mM PCA, 24 h) was 9.0 ± 1.3. For the same molecule, the “GFP intensity (Mean Fluorescence Intensity) of WPP92 (phrpA)” value (hrpA promoter; MM + 0.1 mM PCA, 12 h) was 6.9 ± 0.1 and the “GFP intensity (Mean Fluorescence Intensity) of WPP92 (phrpA)” value (hrpA promoter; MM + 0.1 mM PCA, 24 h) was 9.4 ± 0.7.
